These results are taken from PMC12040169 (PLOS Biology, 2025).

The data set in a line: in vitro. Particulars: human, hela cells, % viability.

As to `O=[N+]([O-])c1cccc(S(=O)(=O)Nc2ccc(C(O)(C(F)(F)F)C(F)(F)F)cc2)c1` [CBK062093], the viability at 28.5 h, 10 µM is 102%. As to `N#Cc1ccc(CNC(=O)c2ccc(-c3ccc(OC(F)(F)F)cc3)nc2)cc1` [CBK156249], the viability at 28.5 h, 10 µM was 87.2%. Consider `N#Cc1ccccc1N1CCN(c2ccc(-c3ccccc3)cn2)CC1` [CBK037590], for which the viability at 28.5 h, 10 µM is 97.8%. Turning to `Cn1ccnc1C1(O)CC2CCC(C1)N2C(=O)Nc1ccccc1F` (stereo not drawn) [CBK284178], the viability at 28.5 h, 10 µM came to 88.2%. For the compound `O=C1CNC(=O)C2(C/C=C/C[C@H]3COCC[C@H]3N1)CCN(C(=O)C1CCOCC1)CC2` [CBK292143], the viability at 28.5 h, 10 µM came to 84.9%.

Turning to `COc1ccc(NC(=O)c2cn(C)nc2CC2CCN(CCc3ccccc3)CC2)cc1` [CBK285559], the viability at 28.5 h, 10 µM came to 90.9%. As to `Cc1ccc2c(c1)N(CC(N)=O)C(=O)CO2` [CBK270208], the viability at 28.5 h, 10 µM is 92.9%. Take `Cn1cc(-c2ccccc2CN2CCCC2)c2onc(-c3ccccc3)c2c1=O` [CBK036319C]: the viability at 28.5 h, 10 µM was 115%. The same measure, in the same setting: the value for `O=C(CO)N1CC2(CCN(CCc3cccc4ccccc34)CC2)c2ccccc21` [CBK137003] was 91.8%. Take `O=c1cc(CSc2nnc(-c3ccccc3)[nH]2)nc2[nH]cnn12` [CBK294398]: the viability at 28.5 h, 10 µM was 96.1%. Take `CCOc1ccc(-c2c(C3CC3)n[nH]c2N)cc1OCC` [CBK288177]: the viability at 28.5 h, 10 µM was found to be 107%. Regarding `CCOC(=O)c1sc(NS(=O)(=O)c2ccc(Cl)c(Cl)c2)nc1C` [CBK077228], the viability at 28.5 h, 10 µM worked out at 92.5%. For `CC(=O)C1=C(O)C(=O)N(CC(=O)O)C1c1cccc([N+](=O)[O-])c1` (stereo not drawn) [CBK262921], the viability at 28.5 h, 10 µM came to 97.4%. As to `Nc1ncc(-c2cccc(OC(F)(F)F)c2)nc1N1CCN(CCO)CC1` [CBK063435], the viability at 28.5 h, 10 µM was determined as 94.9%. In the case of `Cc1noc(C)c1NC(=O)CCc1cccnc1` [CBK200392], the viability at 28.5 h, 10 µM was 99.6%.

For the compound `O=C1CN(C(=O)Nc2ccc3c(c2)OCCO3)CCN1` [CBK155860], the viability at 28.5 h, 10 µM amounted to 92.9%. With `O=C(c1ccco1)N1CCN(C(=O)c2c(F)cccc2F)CC1` [CBK144479], the viability at 28.5 h, 10 µM came to 86.3%. On to `CS(=O)(=O)N(CC(=O)NCc1ccccn1)c1ccc(I)cc1` [CBK265369], for which the viability at 28.5 h, 10 µM stood at 78.8%. As for `Cc1ccc(CN(C2CCN(C)CC2)S(=O)(=O)c2ccc(F)cc2F)cc1` [CBK160448T], the viability at 28.5 h, 10 µM was determined as 97.5%. `NS(=O)(=O)c1ccc(NC(=O)/C(=C/c2ccc(Br)cc2)NC(=O)c2ccccc2)cc1` [CBK262109]: the viability at 28.5 h, 10 µM came out at 105%. Consider `O=C(Cc1c[nH]cn1)N1CCN(c2ncccn2)CC1` [CBK144527], for which the viability at 28.5 h, 10 µM came to 105%.

For the compound `CCOC(=O)CN1CCC(Oc2cncc(OCCN3CCOCC3)n2)C1` (stereo not drawn) [CBK084491], the viability at 28.5 h, 10 µM worked out at 89.3%. For `CCc1ccccc1C(=O)N1CCCCC1CC` (stereo not drawn) [CBK081556], the viability at 28.5 h, 10 µM is 81.9%. On the same count and under the same terms, the value for `COCCn1c(SCc2cc(=O)oc3cc(C)ccc23)nnc1-c1ccc(Cl)cc1` [CBK297517] was 87.8%. For the compound `Fc1ccc(Cn2nnc(-c3ccncc3)n2)c(Cl)c1` [CBK288534], the viability at 28.5 h, 10 µM stood at 102%. Still for that read-out and setting: under `CN1CCN(S(=O)(=O)c2ccc(Oc3ccccc3)cc2)CC1` [CBK062430] stands 113%; under `CCCC(=O)NCCn1nc(-c2ccccc2F)cc1CN(C)C` [CBK282000], 111%.

For `O=C(c1ccco1)N1CCC[C@H]1[C@H](O)c1nc2ccccc2s1` [CBK284290], the viability at 28.5 h, 10 µM was found to be 99%.

With `COC(=O)c1ccc(C)c(N(CCO)CCO)c1` [CBK262418], the viability at 28.5 h, 10 µM came to 102%.

With `COc1nc(NCCc2ccc(OC)c(OC)c2)nc(OC)n1` [CBK266304], the viability at 28.5 h, 10 µM came to 94.4%. Same read-out and setting: the value for `CCOC(=O)c1c2c([nH]c(=S)c1C#N)CCCC2` [CBK020049] was 97.6%; that for `O=C1COc2ccccc2C/C=C/CC2(CCN(C(=O)c3c[nH]cn3)CC2)C(=O)NCCN1` [CBK291990] was 98.3%. On to `c1ccc(CN2CC[C@H](c3nc4ncccc4[nH]3)C2)cc1` [CBK289383], for which the viability at 28.5 h, 10 µM amounted to 106%. For the compound `CNCc1cc(Br)ccc1OC` [CBK027857], the viability at 28.5 h, 10 µM is 113%. The same measure, in the same setting: the value for `Cc1cc(C)nc(NC(=N)NCCc2c[nH]c3ccccc23)n1` [CBK266321] was 70.2%. With `N#CC1(NC(=O)CN2CCOC(Cn3cccn3)C2)CCCC1` (stereo not drawn) [CBK304911], the viability at 28.5 h, 10 µM was 95.8%. Turning to `CCOc1ccccc1CN1CCN(C)CC1` [CBK261577], the viability at 28.5 h, 10 µM (bulk resorufin, single well) is 91%. For the compound `CCS(=O)(=O)N1CCc2cc(C(=O)CSc3nnc(-c4ccco4)o3)ccc21` [CBK297126], the viability at 28.5 h, 10 µM worked out at 98.3%.

Turning to `CCCc1c(C(=O)NC2CC2)cnn1-c1ccc(Cl)cc1` [CBK006334], the viability at 28.5 h, 10 µM was found to be 112%.

`CN(C)c1ccnc2sc(C(N)=O)c(N)c12` [CBK061708]: the viability at 28.5 h, 10 µM was determined as 94%.

Take `COc1ccc2c(c1)COC1(CCN(C(=O)Nc3cccs3)CC1)O2` [CBK060803]: the viability at 28.5 h, 10 µM (bulk resorufin, single well) turned out to be 105%. Consider `CC(C)(C)OC(=O)N1CCN(CCC(=O)O)CC1` [CBK287143], for which the viability at 28.5 h, 10 µM was determined as 101%. Regarding `CC1=NC(O)(C(F)(F)F)C(c2ccccc2)S1` (stereo not drawn) [CBK009121], the viability at 28.5 h, 10 µM was 87.8%. Take `N=C1NC(=O)/C(=C/c2cccc(OCc3cccc4ccccc34)c2)S1` [CBK263610]: the viability at 28.5 h, 10 µM worked out at 93.9%. In the case of `Nc1cc(=O)[nH]c(=O)n1CCc1c[nH]c2ccccc12` [CBK288190], the viability at 28.5 h, 10 µM worked out at 98.1%. Still for that read-out and setting: under `Cc1cccc(C)c1N(CC(=O)O)S(C)(=O)=O` [CBK262329] stands 102%. The same measure, in the same setting: under `O=C(Cn1cnc2c(cnn2-c2ccc(F)cc2)c1=O)Nc1ccc(F)cc1F` [CBK287537] stands 89.3%. With `CN1CCOCC(CNC(=O)c2ccc(-c3ccccc3CO)cc2)C1` (stereo not drawn) [CBK307601], the viability at 28.5 h, 10 µM turned out to be 91.1%. As for `O=C(O)CCNS(=O)(=O)c1ccc(I)cc1` [CBK268968], the viability at 28.5 h, 10 µM turned out to be 111%. In the case of `CCC(=O)N1CCC(NC(=O)c2cnc(-c3ccncc3)s2)C1` (stereo not drawn) [CBK305550], the viability at 28.5 h, 10 µM came out at 94.6%. `CN(CC1CCCN(C(=O)Nc2cccc(Cl)c2)C1)C(=O)OC(C)(C)C` (stereo not drawn) [CBK305597]: the viability at 28.5 h, 10 µM is 94.2%. Take `O=c1[nH]cnc2c1nc(S)n2C1OC(CO)C(O)C1O` (stereo not drawn) [CBK218834]: the viability at 28.5 h, 10 µM was 96.4%. On the same count and under the same terms, the value for `COc1cccc(NC(=S)NCCc2ccccn2)c1` [CBK265245] was 96.9%; that for `CCCCN(C=O)c1c(CC)nc2ccc(C(=O)Nc3ccc(Cl)c(Cl)c3)cn12` [CBK145470] was 84.1%; that for `CC(C)Nc1nccnc1-c1ccc(CO)cc1` [CBK088519] was 90.1%. Take `CCNC(=O)N1CC2(CCN(C/C=C/c3ccccc3)CC2)c2ccccc21` [CBK144596T]: the viability at 28.5 h, 10 µM worked out at 97.6%. Consider `CCOC1CCCN(C(=O)c2cccnc2Nc2cccc(F)c2)C1` (stereo not drawn) [CBK305307], for which the viability at 28.5 h, 10 µM was 86.9%. Consider `CC(C)c1ccc(S(=O)(=O)Nc2cc(F)c(F)c(F)c2)cc1` [CBK045028], for which the viability at 28.5 h, 10 µM came out at 104%. `O=C1CC2(CCC3C(C(=O)N4CCCCC4)C32)Oc2ccccc21` (stereo not drawn) [CBK284947]: the viability at 28.5 h, 10 µM was found to be 105%. `O=C(O)C1CCCCC1C(=O)NCCCN1CCCC1=O` (stereo not drawn) [CBK286914]: the viability at 28.5 h, 10 µM was determined as 83.1%. Consider `NNC(=O)c1cc(-c2ccccc2)nc2ccc(Br)cc12` [CBK261762], for which the viability at 28.5 h, 10 µM was 102%. `Cc1ccc(N2C(=O)c3ccccc3C2=O)cc1` [CBK113243]: the viability at 28.5 h, 10 µM is 95.7%.

On to `Cc1[nH]c2ccccc2c1C(=O)CSc1nc2ccccc2[nH]1` [CBK266494], for which the viability at 28.5 h, 10 µM was determined as 63.6%. On to `O=C(CCc1nc2ccccc2s1)Nc1nc2ccccc2[nH]1` [CBK287988], for which the viability at 28.5 h, 10 µM turned out to be 114%. In the case of `COc1ccc2[nH]c3c(c2c1)CCNC31CCN(C(=O)NC(C)(C)C)CC1` [CBK047069], the viability at 28.5 h, 10 µM came out at 97.4%. Consider `Cc1nc(C(=O)NC2CCN(C)CC2)ccc1C(=O)O` [CBK304262], for which the viability at 28.5 h, 10 µM is 95.2%. Regarding `COc1ccc(-c2csc(CCNC(=O)Cc3c[nH]c(=O)[nH]c3=O)n2)cc1` [CBK285670], the viability at 28.5 h, 10 µM amounted to 92.4%. For `COc1ccc2c(CC(=O)Nc3sccc3C(N)=O)coc2c1` [CBK295137], the viability at 28.5 h, 10 µM was determined as 101%.

Take `CCc1nn(CC(=O)NC(C)C)c(=O)c2cc3ccsc3n12` [CBK284131]: the viability at 28.5 h, 10 µM came out at 82.6%. In the case of `CCOC(=O)c1cc2cc(NC(=O)N(CCO)C3CC3)ccc2s1` [CBK306007], the viability at 28.5 h, 10 µM was found to be 87.6%.

`Cc1[nH]c2ccc(CNC(=O)Cn3ccnc3C(C)C)cc2c1C` [CBK281540]: the viability at 28.5 h, 10 µM turned out to be 87.6%. On to `Cn1c(SCc2ccc([N+](=O)[O-])cc2)nnc1-c1ccc(NC(=O)c2ccccc2Cl)cc1` [CBK265001], for which the viability at 28.5 h, 10 µM is 111%. Turning to `Cc1ccc(C)c(NC(=O)CCNC(=O)c2cnn3cc(C)cnc23)c1` [CBK306590], the viability at 28.5 h, 10 µM was 87.5%. On to `CSCCCNC(=O)c1ccc(-c2ccoc2)nc1` [CBK156262], for which the viability at 28.5 h, 10 µM stood at 99%.

For `CC(=O)Nc1ccc(-c2csc(Nc3ccc(S(=O)(=O)Nc4nc(C)cc(C)n4)cc3)n2)cc1` [CBK267295], the viability at 28.5 h, 10 µM came out at 87%.

Consider `Cc1cc(SCC(=O)Nc2cccc3ccccc23)nc2c(C)cccc12` [CBK268005], for which the viability at 28.5 h, 10 µM amounted to 92.2%.

For the compound `O=C1CC(C(=O)O)SC(NNC(=O)c2ccccc2)=N1` (stereo not drawn) [CBK267944], the viability at 28.5 h, 10 µM stood at 91.2%. With `CCC(O)CNC(=O)c1coc(COc2ccc3sc(C)nc3c2)n1` (stereo not drawn) [CBK307700], the viability at 28.5 h, 10 µM came out at 90.8%.

In the case of `CCC(CN(C(=O)C(N)CCCCN)c1ccc2c(c1)OCO2)c1ccccc1` (stereo not drawn) [CBK001083T], the viability at 28.5 h, 10 µM turned out to be 96.4%. Still for that read-out and setting: under `Cc1c(NC(=O)CSc2nnc3c4ccccc4n(C(C)C)c3n2)c(=O)n(-c2ccccc2)n1C` [CBK263916] stands 105%; under `COc1ccc(OC)c(NC(=O)CSc2ccc(-c3ccncc3)nn2)c1` [CBK287637], 86.6%.

One may read the viability as a read-out of living cells in per cent, often relative to untreated cells.
